Calls of active or inactive are those of the source. For most assays here, no stated cut-off is given here; in the data, actives have a measured EC50 and inactives only a lower limit.
How the values were obtained:
[1] = biological target: T1, Heat shock factor protein 1 (Mus musculus, UniProt P38532); assay: decrease of HSF1-responsive luciferase luminescence – cell-based, NIH3T3, dose retest, confirmation (AID 2382); type: functional;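 further: NIH3T3 fibroblasts with HSF1-driven luciferase reporter stressed by proteasome inhibitor MG132; luminescence from HSF1-driven luciferase expression after 8 hours of MG132 stress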
T1 sequence (P38532 whole entry): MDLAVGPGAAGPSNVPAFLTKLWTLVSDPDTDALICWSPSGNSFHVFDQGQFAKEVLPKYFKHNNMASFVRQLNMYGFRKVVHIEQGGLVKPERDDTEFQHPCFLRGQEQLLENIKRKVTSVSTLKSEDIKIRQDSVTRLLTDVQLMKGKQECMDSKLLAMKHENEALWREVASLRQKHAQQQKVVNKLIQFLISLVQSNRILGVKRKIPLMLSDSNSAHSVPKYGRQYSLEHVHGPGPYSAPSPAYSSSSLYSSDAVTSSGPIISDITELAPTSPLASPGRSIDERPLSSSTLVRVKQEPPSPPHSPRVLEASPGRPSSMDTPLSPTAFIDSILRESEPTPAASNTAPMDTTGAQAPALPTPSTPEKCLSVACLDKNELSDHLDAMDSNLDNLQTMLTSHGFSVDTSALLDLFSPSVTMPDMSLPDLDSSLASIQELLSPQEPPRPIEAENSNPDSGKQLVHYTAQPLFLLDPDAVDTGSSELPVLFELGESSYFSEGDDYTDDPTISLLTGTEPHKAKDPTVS

[2] = biological target: T1, Heat shock factor protein 1; assay: enhancement of HSF1-driven luciferase signal – cell-based, NIH3T3, luminescence, dose retest, confirmation (AID 435004); type: functional;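 further: stress induced by proteasome inhibitor MG132 added 30 min after compound; luciferase reporter driven by HSF1 response element in NIH3T3 cells; actives raise luminescence as potentiators of the MG132 stress response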
[3] = system: INS1; assay: INS-1E survival protection against cytokine death – cell-based, luminescence, retest, dose response (AID 449756); type: functional; details: Rattus norvegicus;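 further: cell death triggered by IL-1 beta plus TNF-alpha plus IFN-gamma mixture; protective hits raise ATP signal compared with cytokine alone wells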
[4] = non-specific 3'UTR reporter inhibition in Clone20-Shn3RL – cell-based, Renilla luciferase, cherry-picked, counter-screen for Shn3 inhibitor project, dose response (AID 624133); type: functional
[5] = reduction of Shn3 3'UTR-driven luciferase in osteoblasts – cell-based, Clone20 osteoblasts, firefly luciferase, cherry-picked, dose response (AID 624132); type: functional;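 further: firefly luciferase luminescence from reporter carrying the Shn3 3'UTR in osteoblasts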
[6] = loss of viability in HepG2 cells – cell-based, CellTiter-Glo, cherry-picked, cytotoxicity control for Shn3 inhibitor project, dose response (AID 624134); type: functional
[7] = biological target: Cytochrome P450 2C9 (Homo sapiens, UniProt P11712)
[8] = system: Streptococcus sp. 'group A'; assay: Streptococcus pyogenes SK(-)GAS viability under kanamycin – luminescence, BacTiterGlo, confirmation, counter-screen for streptokinase expression inhibitor project, dose response (AID 1900); type: functional, organism-based
[9] = biological target: T2, Streptokinase A (Streptococcus pyogenes serotype M1, UniProt P10520); assay: viability-normalized secreted streptokinase activity reduction – plasminogen activation absorbance, OD405, dose response (AID 1914); type: functional, Streptococcus pyogenes M1 GAS;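 further: secreted streptokinase activity via plasminogen activation per viability signal from cell pellet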
T2 sequence (P10520 whole entry): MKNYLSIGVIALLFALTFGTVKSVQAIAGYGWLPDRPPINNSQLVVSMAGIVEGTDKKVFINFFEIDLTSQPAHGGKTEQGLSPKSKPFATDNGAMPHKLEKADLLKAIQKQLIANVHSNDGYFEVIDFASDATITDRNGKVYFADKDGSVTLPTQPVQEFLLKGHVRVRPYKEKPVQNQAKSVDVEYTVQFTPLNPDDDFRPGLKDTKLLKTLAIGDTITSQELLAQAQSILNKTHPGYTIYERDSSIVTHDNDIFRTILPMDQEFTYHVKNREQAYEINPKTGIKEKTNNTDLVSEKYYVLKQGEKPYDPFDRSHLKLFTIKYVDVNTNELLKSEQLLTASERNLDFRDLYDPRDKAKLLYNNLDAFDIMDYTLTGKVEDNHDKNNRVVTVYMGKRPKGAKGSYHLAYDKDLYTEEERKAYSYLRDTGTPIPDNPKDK

[10] = biological target: T3, Protein RecA (Mycobacterium tuberculosis, UniProt P9WHJ3); assay: Fluorescence Cell-Free Homogeneous Dose Retest to Identify Inhibitors of RecA-Intein Splicing Activity. [Related pubchem assays (depositor defined):AID2097, AID2223, AID489010, AID492950]; type: functional
T3 sequence (P9WHJ3 whole entry): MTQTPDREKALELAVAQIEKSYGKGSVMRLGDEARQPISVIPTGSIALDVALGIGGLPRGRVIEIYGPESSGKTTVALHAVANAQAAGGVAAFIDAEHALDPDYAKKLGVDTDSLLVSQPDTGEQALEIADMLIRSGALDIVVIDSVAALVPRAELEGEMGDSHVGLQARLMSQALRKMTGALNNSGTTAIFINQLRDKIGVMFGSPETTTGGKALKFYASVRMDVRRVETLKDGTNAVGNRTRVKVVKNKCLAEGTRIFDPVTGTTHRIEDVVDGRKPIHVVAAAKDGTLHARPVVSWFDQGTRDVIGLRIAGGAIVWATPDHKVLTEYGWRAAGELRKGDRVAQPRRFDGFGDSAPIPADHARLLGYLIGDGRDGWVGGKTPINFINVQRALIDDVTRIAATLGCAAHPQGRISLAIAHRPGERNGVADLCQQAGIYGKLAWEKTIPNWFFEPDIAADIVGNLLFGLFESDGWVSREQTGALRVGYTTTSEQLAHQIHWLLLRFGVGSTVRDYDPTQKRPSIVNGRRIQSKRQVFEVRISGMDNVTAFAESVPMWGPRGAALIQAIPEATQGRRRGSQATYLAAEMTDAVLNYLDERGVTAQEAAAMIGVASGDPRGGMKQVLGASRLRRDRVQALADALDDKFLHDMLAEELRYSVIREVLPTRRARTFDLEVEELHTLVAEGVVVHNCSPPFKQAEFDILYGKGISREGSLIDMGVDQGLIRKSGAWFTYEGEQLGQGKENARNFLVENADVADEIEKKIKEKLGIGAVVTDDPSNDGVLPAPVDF

[11] = system: Streptococcus; assay: GAS UMAA2166 growth inhibition – luminescence, BacTiterGlo, counter-screen for streptokinase expression inhibitor project, dose response (AID 1915); type: functional, organism-based;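 further: potency for reduction of bacterial viability or growth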

Sequence of Cytochrome P450 2C9 (P11712 whole entry): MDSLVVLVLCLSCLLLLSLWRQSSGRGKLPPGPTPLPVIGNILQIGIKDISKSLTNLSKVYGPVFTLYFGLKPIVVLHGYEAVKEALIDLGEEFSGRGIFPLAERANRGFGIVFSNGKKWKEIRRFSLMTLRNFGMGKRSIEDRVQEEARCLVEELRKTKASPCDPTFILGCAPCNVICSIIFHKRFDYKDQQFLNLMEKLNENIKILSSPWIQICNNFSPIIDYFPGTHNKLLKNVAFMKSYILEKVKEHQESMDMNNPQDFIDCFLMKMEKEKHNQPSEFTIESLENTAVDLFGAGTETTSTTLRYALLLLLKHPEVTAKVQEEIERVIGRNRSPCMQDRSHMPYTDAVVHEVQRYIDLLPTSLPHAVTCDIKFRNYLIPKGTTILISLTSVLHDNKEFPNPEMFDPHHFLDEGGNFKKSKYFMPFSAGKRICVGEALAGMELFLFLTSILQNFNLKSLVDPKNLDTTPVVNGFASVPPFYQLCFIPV

Question: For `Cc1ccc(S(=O)(=O)N2CCC(C(=O)NNC(=O)c3ccncc3)CC2)cc1`, which EC50 [1] is on record?
Answer: > 195 µM (not active)

Question: With `Cn1c(=O)c2c(nc(NCCO)n2C)n(C)c1=O` as the compound, how does the EC50 [2] read?
Answer: > 260 µM (inactive)

Question: With `COC(=O)c1ccc(CN2CCN(CCc3ccccc3)C(CCO)C2)cc1` (stereo not given) as the compound, how does the EC50 [1] read?
Answer: > 195 µM (not active)

Question: With `CCOc1ccc(N(C)S(=O)(=O)c2ccc(C)c(C(=O)OCC(=O)c3c[nH]c4ccccc34)c2)cc1` as the compound, how does the AC50 [3] read?
Answer: 11.3 µM (active)

Question: Which AC50 [3] does the source give for `CCSC1=NCCN1C(=O)C(C)(C)Oc1ccc(Cl)cc1` here?
Answer: > 260 µM (inactive)

Question: With `CC(=O)c1cccc(NS(=O)(=O)c2ccc(N/C=C\C(=O)c3ccc(C)cc3)cc2)c1` as the compound, how does the AC50 [4] read?
Answer: 19.6 µM (active)

Question: And the AC50 [5]?
Answer: 1.51 µM (active)

Question: And the AC50 [6]?
Answer: > 70 µM (inactive)

Question: Which EC50 [2] does the source give for `Cc1ccc(-c2csc3ncnc(O)c23)c(C)c1` here?
Answer: > 260 µM (inactive)

Question: Which EC50 [2] does the source give for `N#Cc1ccccc1COC(=O)c1cc(=O)c2ccccc2o1` here?
Answer: > 260 µM (inactive)

Question: With `COCCN1C(=O)c2ccccc2C(C(=O)Nc2ccc3c(c2)OCCO3)C1c1ccc(F)cc1` (stereo not given) as the compound, how does the AC50 [7] read?
Answer: 35.5 µM (inconclusive)

Question: Which results are given for `Cc1ccccc1OCC(=O)Nc1ccccc1N1CCCCC1`?
Answer: EC50 [8]: 9.64 µM (active); EC50 [9]: 14.2 µM (active); EC50 [10]: 242 µM (active); EC50 [11]: 17.9 µM (active)

Question: For `Cc1nc2ccccc2c2oc(C(=O)Nc3ccc(C(C)C)cc3)cc12`, which AC50 [3] is on record?
Answer: 18.8 µM (active)

Question: Which EC50 [8] does the source give for `CCOC(=O)c1cc(-c2ccc3c(c2)OCCO3)nc2c1c(C)nn2CCC#N` here?
Answer: 4.49 µM (active)

Question: What about the EC50 [9] of the same compound?
Answer: > 150 µM (not active)

Question: And the EC50 [11]?
Answer: 17.6 µM (active)

Question: Which EC50 [8] does the source give for `CCCCNc1c(-c2ccc(OC)c(SC3CCCCC3)c2)nc2cnccn12` here?
Answer: 4.63 µM (active)

Question: And the EC50 [9]?
Answer: 6.56 µM (active)

Question: What about the EC50 [11] of the same compound?
Answer: 8.16 µM (active)

Question: With `CCOC(=O)C1CCN(C(=O)CC(C)c2ccccc2)CC1` (stereo not given) as the compound, how does the EC50 [1] read?
Answer: 13.5 µM (active)

Question: With `Fc1ccc(NC(S)=NCc2ccccc2)cc1` as the compound, how does the EC50 [1] read?
Answer: > 195 µM (not active)

Question: With `O=C(COC(=O)C1CSC2(c3ccc(F)cc3)CCC(=O)N12)NC(=O)NC1CCCC1` (stereo not given) as the compound, how does the EC50 [2] read?
Answer: > 260 µM (inactive)

Question: Which EC50 [1] does the source give for `OC1(c2ccc(Br)cc2)CCN(Cc2cccc(Br)c2)CC1` here?
Answer: > 195 µM (not active)

Question: For `CCOc1ccc(NC(=O)CCCNC(=O)Cn2cnc3sc(C)c(C)c3c2=O)cc1`, which EC50 [1] is on record?
Answer: > 195 µM (not active)

Question: With `CCN(CC)S(=O)(=O)c1ccc2c(c1)nc(SCC(=O)NC1CC1)n2-c1ccccc1OC` as the compound, how does the EC50 [2] read?
Answer: > 260 µM (inactive)

Question: Which EC50 [1] does the source give for `COCCn1c(SCC(=O)c2cc(C)n(C)c2C)nc2ccccc2c1=O` here?
Answer: > 195 µM (not active)

Question: With `CCCCCCCCCCCCN1C(=O)CSC1c1cccnc1` (stereo not given) as the compound, how does the EC50 [8] read?
Answer: 6.74 µM (active)

Question: What about the EC50 [9] of the same compound?
Answer: 20.4 µM (active)

Question: And the EC50 [11]?
Answer: > 150 µM (not active)

Question: With `CC(C)c1ccc(/C(C(=O)O)=C(\O)C(=O)O)cc1` as the compound, how does the AC50 [7] read?
Answer: 3.16 µM (inconclusive)

Question: For `Cc1cccc(N2C(=N)SCC2=O)c1C`, which EC50 [2] is on record?
Answer: > 260 µM (inactive)

Question: For `O=S(=O)(c1ccc(F)c(F)c1F)N1CCN(c2ncnc3sccc23)CC1`, which AC50 [3] is on record?
Answer: 4.95 µM (active)

Question: With `Cc1cc(C)n(-c2cc(=O)n(C)c(=O)n2C)n1` as the compound, how does the EC50 [2] read?
Answer: > 260 µM (inactive)

Question: Which EC50 [2] does the source give for `CCc1nnc(N/N=C/c2ccccc2Cl)n1N` here?
Answer: > 260 µM (inactive)

Question: Which results are given for `CCN1CCN(Cc2ccc(NC(=O)c3ccc(C)c(NC(=O)c4cncc(-c5cccs5)c4)c3)cc2C(F)(F)F)CC1`?
Answer: AC50 [4]: 0.898 µM (active); AC50 [5]: 0.808 µM (active); AC50 [6]: 7.28 µM (active)
